US5032514A, “Metabolic pathway engineering to increase production of ascorbic acid intermediates” (Genentech, Inc., priority 1988, dated 1991)

How the values were obtained:
[1] = test system: 2-ketoaldonate reductase [2KR(B)]; assay: induction of 2-keto reductase activity by carbohydrates in LB media; assay type: cell-based, E. herbicola 21998tkrAΔ3; conditions: compound as inducer in LB media
Text: The fact that idonate was still produced in the tkrA^- mutant led to the discovery of a second 2-ketoaldonate reductase [2KR(B)], encoded by an inducible tkrB gene. This protein can be purified from the tkrAΔ3 strain and the gene has been cloned (see below). Evidence that 2KR(A) and 2KR(B) are in fact different enzymes is based on observed differences in protein sequence, molecular weight on SDS gels, subunit composition, migration on native gels, kinetic parameters, and gene sequence. 2KR(B) activity is inducible in LB media by a variety of carbohydrates which are listed on Table 1. […] 2-keto reductase activity is found widely elsewhere in nature. We have also identified 2-keto aldonate reductase activity in both E. coli MM294 and Corynebacterium sp. ATCC 31090, neither of which is known to be ketogenic nor produce 2-KLG as a natural product.

[2] = test system: 5-KDG reductase; assay: induction of 5-keto reductase activity by carbohydrates in LB media; assay type: cell-based, E. herbicola 21998tkrAΔ3; conditions: compound as inducer in LB media
[3] = test system: idonate dehydrogenase; assay: membrane bound idonate dehydrogenase assay (crude membrane fraction)
[4] = target: gluconate dehydrogenase; assay: membrane bound gluconate dehydrogenase assay (crude membrane fraction); conditions: read-out: Ki, competitive inhibition of gluconate dehydrogenase
[5] = test system: E. herbicola; assay: growth on sole carbon source in minimal media; assay type: cell-based
Protocol: Although a large number of potential metabolic routes from glucose exist, IA is likely produced from either 2-KLG or 5-keto-D-gluconate (5-KDG) catalyzed by a stereospecific pyridine nucleotide-linked reductase. Evidence for both the 5-KDG route in Fusarium species (Takagi, Agric. Biol. Chem. 26:719 [1962]) and the 2-KLG route in a variety of microorganisms has been observed (Makeover et al., supra). Shake flask incubations of whole cells of E. herbicola at 11 OD550 containing 12 g/1 of either 2-KLG or 5-KDG were carried out. Approximately 4 g/1 of IA was produced in flasks containing 2-KLG in 40 hours. The total IA and 2-KLG concentration remained constant throughout the bioconversion. […] Furthermore, E. herbicola was grown using either 5-KDG, G, GA, 2-KDG, or 2,5-DKG as the sole carbon source in minimal media. […] Thus the IA produced in E. herbicola into which an expression vector encoding 2,5-DKG reductase has been transferred is derived from 2-KLG catabolism.

[6] = test system: tac promoters; assay: modulation of expression level by sequential increases in IPTG; assay type: cell-based, Erwinia herbicola; conditions: for 2-KLG + IA/DKG: fractional weight basis relative to 2,5-DKG
Protocol: Additional experiments were carried out modulating the expression level by sequential increases in IPTG to induce the tac promoters.
In the table below, IPTG is the concentration of isopropylthio-β-galactoside added to the culture medium. Enzyme activity is the sum of the activities of 2,5-DKG reductase and 2-keto aldonate reductase per mg of protein (measured using the Bradford assay, supra). 2-KLG is measured on gram per gram dry cell weight per hour. Finally, the 2-KLG and idonate is measured on a fractional weight basis relative to 2,5-DKG.

Row | Structure (SMILES) | 2 KR Spec. Act. [1] [µmol/min/mg] | 5 KR Spec. Act. [2] [µmol/min/mg] | further results
1 | O=C(O)C(=O)[C@@H](O)[C@H](O)C(=O)CO [2,5-DKG, 2,5-diketo-D-gluconic acid] | 0.122 | 0.103 | –
2 | O=C(O)C(=O)[C@@H](O)[C@H](O)[C@H](O)CO [2-KDG, 2-keto-D-gluconate] | 0.045 | 0.143 | inhibition of idonate dehydrogenase ([3]; crude membrane fraction): but not idonate dehydrogenase; Ki [4]: > 10 mM
3 | O=C(O)C(=O)[C@@H](O)[C@H](O)[C@@H](O)CO [2-KLG, 2-keto-L-gulonic acid] | 0.014 | 0.061 | growth using compound as the sole carbon source [5]: did not grow; Ki ([3]; read-out: Ki, competitive inhibition of idonate dehydrogenase, crude membrane fraction): 13 mM
4 | O=C(CO)[C@@H](O)[C@H](O)[C@@H](O)C(=O)O [5-KDG, 5-keto-D-gluconate] | 0.119 | 0.105 | –
5 | O=C(CO)[C@@H](O)[C@H](O)[C@H](O)CO [D-fructose] | 0.028 | 0.032 | –
6 | O=C[C@H](O)[C@@H](O)[C@H](O)[C@H](O)CO [D-glucose] | 0.167 | 0.27 | –
7 | OCC(O)CO [D-glycerol] | 0.024 | 0.035 | –
8 | OC[C@@H](O)[C@@H](O)[C@H](O)[C@H](O)CO [D-mannitol] | 0.027 | 0.032 | –
9 | O=C(O)[C@H](O)[C@@H](O)[C@H](O)[C@H](O)CO [GA, D-gluconate] | 0.020 | 0.144 | –
10 | O=C(O)[C@H](O)[C@@H](O)[C@H](O)[C@@H](O)CO [IA, L-idonic acid] | – | – | growth using compound as the sole carbon source [5]: did not grow; Km ([3]; read-out: apparent Km, idonate dehydrogenase activity, pH 6.0, 25° C.): 20 mM
11 | CC(C)S[C@@H]1O[C@H](CO)[C@H](O)[C@H](O)[C@H]1O [IPTG, isopropylthio-β-galactoside] | – | – | 2-KLG Prod. Rate ([6]; [IPTG] 0.001 mM): 0.000 g/g-DCW-Hr; Enzyme Activity (sum of 2,5-DKG reductase and 2-keto aldonate reductase) ([6]; [IPTG] 0.001 mM): 0.029 umole/mg-P-min; 2-KLG + IA/DKG ([6]; [IPTG] 0.001 mM): 0.000; 2-KLG Prod. Rate ([6]; [IPTG] 0.005 mM): 0.004 g/g-DCW-Hr; Enzyme Activity (sum of 2,5-DKG reductase and 2-keto aldonate reductase) ([6]; [IPTG] 0.005 mM): 0.051 umole/mg-P-min; 2-KLG + IA/DKG ([6]; [IPTG] 0.005 mM): 0.025; 2-KLG Prod. Rate ([6]; [IPTG] 0.050 mM): 0.062 g/g-DCW-Hr; Enzyme Activity (sum of 2,5-DKG reductase and 2-keto aldonate reductase) ([6]; [IPTG] 0.050 mM): 0.100 umole/mg-P-min; 2-KLG + IA/DKG ([6]; [IPTG] 0.050 mM): 0.350; 2-KLG Prod. Rate ([6]; [IPTG] 0.500 mM): 0.126 g/g-DCW-Hr; Enzyme Activity (sum of 2,5-DKG reductase and 2-keto aldonate reductase) ([6]; [IPTG] 0.500 mM): 0.140 umole/mg-P-min; 2-KLG + IA/DKG ([6]; [IPTG] 0.500 mM): 0.530
